According to patent US10329302B2, “Bicyclic-fused heteroaryl or aryl compounds” (Pfizer Inc., priority 2014, dated 2019):
pIC50: −log10 of the molar value.

The molecules below were run against human IRAK4 kinase domain (aa 154-460) (Homo sapiens (Human), UniProt Q9NWZ3) (assay: IRAK4 Enzymatic DELFIA Assay, Protocol B). Conditions: human IRAK4 kinase domain (aa 154-460), 0.6 mM ATP (KM); read-out: IRAK4 DELFIA Protocol B IC50.
Format: biochemical
Source text: IRAK4 Enzymatic DELFIA Assay, Protocol B.

Sequence of human IRAK4 kinase domain (aa 154-460) (Q9NWZ3 154-460): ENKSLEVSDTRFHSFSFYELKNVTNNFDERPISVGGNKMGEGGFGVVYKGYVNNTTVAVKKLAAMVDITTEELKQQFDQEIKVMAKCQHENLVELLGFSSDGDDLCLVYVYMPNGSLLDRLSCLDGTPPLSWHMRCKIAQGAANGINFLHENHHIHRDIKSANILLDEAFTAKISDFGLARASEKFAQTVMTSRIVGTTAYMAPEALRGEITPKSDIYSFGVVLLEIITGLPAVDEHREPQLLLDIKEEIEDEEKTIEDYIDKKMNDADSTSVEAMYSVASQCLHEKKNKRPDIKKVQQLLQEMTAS

Compared with CC(C)Oc1cc2c(OC[C@@H]3C[C@](O)(CC(F)(F)F)C(=O)N3)nccc2cc1C(N)=O [Example 184, 1-{[(2S,4S)-4-hydroxy-5-oxo-4-(2,2,2-trifluoroethyl)pyrrolidin-2-yl]methoxy}-7-(propan-2-yloxy)isoquinoline-6-carboxamide], CC(C)Oc1cc2c(OC[C@@H]3CC(CO)C(=O)N3)nccc2cc1C(N)=O (stereo partly drawn) [Example 148, 1-{[(2S)-4-(hydroxymethyl)-5-oxopyrrolidin-2-yl]methoxy}-7-(propan-2-yloxy)isoquinoline-6-carboxamide] is 0.40 log units higher in pIC50: 7.22 for the first, 7.62 for the second. The second is the more potent here.

Going from CC(C)Oc1cc2c(OC[C@@H]3NC(=O)CC3(C)C)nccc2cc1C(N)=O [Example 223, 1-{[(2R)-3,3-dimethyl-5-oxopyrrolidin-2-yl]methoxy}-7-(propan-2-yloxy)isoquinoline-6-carboxamide] to CC(C)Oc1cc2c(OCC3CNC(=O)C3)nccc2cc1C(N)=O (stereo not shown) [Example 111, 1-[(5-oxopyrrolidin-3-yl)methoxy]-7-(propan-2-yloxy)isoquinoline-6-carboxamide], the pIC50 falls from 7.82 to 6.71 (1.11 log units).

CC(C)Oc1cc2c(OC[C@H]3NC(=O)[C@@H]4OC(C)(C)O[C@H]34)nccc2cc1C(N)=O [Example 167, 1-{[(3aR,4R,6aR)-2,2-dimethyl-6-oxotetrahydro-3aH-[1,3]dioxolo[4,5-c]pyrrol-4-yl]methoxy}-7-(propan-2-yloxy)isoquinoline-6-carboxamide] and CC(C)Oc1cc2c(OCC3CNC(=O)O3)nccc2cc1C(N)=O (stereo not shown) [Example 35, 1-[(2-oxo-1,3-oxazolidin-5-yl)methoxy]-7-(propan-2-yloxy)isoquinoline-6-carboxamide] are within 0.2 log units of each other in pIC50: 7.72 for the first, 7.80 for the second.

Going from CC(C)Oc1cc2c(OC[C@@H]3CCCNC3)nccc2cc1C(N)=O [Example 48, 1-[(3R)-piperidin-3-ylmethoxy]-7-(propan-2-yloxy)isoquinoline-6-carboxamide] to CC(C)Oc1cc2c(OC[C@H]3CCCNC3)nccc2cc1C(N)=O [Example 28, 1-[(3S)-piperidin-3-ylmethoxy]-7-(propan-2-yloxy)isoquinoline-6-carboxamide], the pIC50 falls from 6.44 to 5.88 (0.56 log units). The first is the more potent here.

Compared with CC(C)Oc1cc2c(OC[C@@H]3COCCN3)nccc2cc1C(N)=O [Example 160, 1-[(3S)-morpholin-3-ylmethoxy]-7-(propan-2-yloxy)isoquinoline-6-carboxamide], CC(C)Oc1cc2c(OCC3CCCN3)nccc2cc1C(N)=O (stereo not shown) [Example 159, 7-(propan-2-yloxy)-1-(pyrrolidin-2-ylmethoxy)isoquinoline-6-carboxamide] is 1.35 log units lower in pIC50: 6.82 for the first, 5.47 for the second.

CC(C)Oc1cc2c(OCC3CCN(C(=O)CC#N)CC3)nccc2cc1C(N)=O [Example 62, 1-{[1-(cyanoacetyl)piperidin-4-yl]methoxy}-7-(propan-2-yloxy)isoquinoline-6-carboxamide] and CC(C)Oc1cc2c(OC[C@@H]3CCCN(C(=O)CC#N)C3)nccc2cc1C(N)=O [Example 67, 1-{[(3R)-1-(cyanoacetyl)piperidin-3-yl]methoxy}-7-(propan-2-yloxy)isoquinoline-6-carboxamide] are within 0.2 log units of each other in pIC50: 5.89 for the first, 5.76 for the second.

First: CC(C)Oc1cc2c(OCC3CCNC(=O)C3)nccc2cc1C(N)=O (stereo not shown) [Example 138, 1-[(2-oxopiperidin-4-yl)methoxy]-7-(propan-2-yloxy)isoquinoline-6-carboxamide]
Second: CC(C)Oc1cc2c(OCC3CCOC3)nccc2cc1C(N)=O (stereo not shown) [Example 24, 7-(propan-2-yloxy)-1-(tetrahydrofuran-3-ylmethoxy)isoquinoline-6-carboxamide]
The pIC50 of the first is 0.33 log units lower: 5.98 for the first, 6.31 for the second. The second is the more potent here.

First: CC(C)Oc1cc2c(OC[C@H]3CCCN(C(=O)CC#N)C3)ccnc2cc1C(N)=O [Example 93, 4-{[(3S)-1-(cyanoacetyl)piperidin-3-yl]methoxy}-6-(propan-2-yloxy)quinoline-7-carboxamide]
Second: CC(C)Oc1cc2c(OC[C@@H]3CCCN(C(=O)CC#N)C3)ccnc2cc1C(N)=O [Example 97, 4-{[(3R)-1-(cyanoacetyl)piperidin-3-yl]methoxy}-6-(propan-2-yloxy)quinoline-7-carboxamide]
The pIC50 of the first is 0.26 log units higher: 5.82 for the first, 5.56 for the second. The first is the more potent here.

Compared with CC(C)Oc1cc2c(O[C@H]3C[C@@H]4CN[C@H]3C4)nccc2cc1C(N)=O [Example 109, 1-[(1S,4R,6S)-2-azabicyclo[2.2.1]hept-6-yloxy]-7-(propan-2-yloxy)isoquinoline-6-carboxamide], CC(C)Oc1cc2c(O[C@H]3C[C@@H]4C[C@H]3CN(C(=O)CC#N)C4)nccc2cc1C(N)=O [Example 81, 1-{[(1S,5S,6S)-3-(cyanoacetyl)-3-azabicyclo[3.2.1]oct-6-yl]oxy}-7-(propan-2-yloxy)isoquinoline-6-carboxamide] is 0.60 log units higher in pIC50: 5.72 for the first, 6.32 for the second.

First: CO[C@H]1CNC[C@@H]1COc1nccc2cc(C(N)=O)c(OC(C)C)cc12 [Example 34, 1-{[(3R,4R)-4-methoxypyrrolidin-3-yl]methoxy}-7-(propan-2-yloxy)isoquinoline-6-carboxamide]
Second: CC(C)Oc1cc2c(OC[C@H]3[C@@H]4CNC[C@@H]43)nccc2cc1C(N)=O [Example 42, 1-[(1R,5S,6r)-3-azabicyclo[3.1.0]hex-6-ylmethoxy]-7-(propan-2-yloxy)isoquinoline-6-carboxamide]
The pIC50 of the first is 0.34 log units lower: 6.32 for the first, 6.66 for the second. The second is the more potent here.

Compared with CC(C)Oc1cc2c(OC[C@]34CNCC[C@H]3C4)nccc2cc1C(N)=O [Example 162, 1-[(1S,6R)-3-azabicyclo[4.1.0]hept-1-ylmethoxy]-7-(propan-2-yloxy)isoquinoline-6-carboxamide], CC(C)Oc1cc2c(OC[C@@]34CNC[C@@H]3C4)nccc2cc1C(N)=O [Example 140, 1-[(1R,5R)-3-azabicyclo[3.1.0]hex-1-ylmethoxy]-7-(propan-2-yloxy)isoquinoline-6-carboxamide] is 0.38 log units lower in pIC50: 7.46 for the first, 7.08 for the second. The first is the more potent here.

First: CC(C)Oc1cc2c(OC[C@H]3CCNC3)ccnc2cc1C(N)=O [Example 50, 6-(propan-2-yloxy)-4-[(3S)-pyrrolidin-3-ylmethoxy]quinoline-7-carboxamide]
Second: CC(C)Oc1cc2c(OCC3CCCNC3)ccnc2cc1C(N)=O (stereo not shown) [Example 59, 4-(piperidin-3-ylmethoxy)-6-(propan-2-yloxy)quinoline-7-carboxamide]
The pIC50 of the first is 0.46 log units lower: 6.15 for the first, 6.61 for the second. The second is the more potent here.

CC(C)Oc1cc2c(OC[C@@H]3CNCCO3)ccnc2cc1C(N)=O [Example 51, 4-[(2S)-morpholin-2-ylmethoxy]-6-(propan-2-yloxy)quinoline-7-carboxamide] and CC(C)Oc1cc2c(OC[C@H]3CNCCO3)nccc2cc1C(N)=O [Example 47, 1-[(2R)-morpholin-2-ylmethoxy]-7-(propan-2-yloxy)isoquinoline-6-carboxamide] are within 0.2 log units of each other in pIC50: 5.62 for the first, 5.56 for the second.

First: CC(C)Oc1cc2c(OC3CC[C@@H]4CNC[C@H]34)ccnc2cc1C(N)=O (stereo partly drawn) [Example 21, 4-[(3aR,6aS)-octahydrocyclopenta[c]pyrrol-4-yloxy]-6-(propan-2-yloxy)quinoline-7-carboxamide]
Second: CC(C)Oc1cc2c(OCC3CCOC3)ccnc2cc1C(N)=O (stereo not shown) [Example 10, 6-(propan-2-yloxy)-4-(tetrahydrofuran-3-ylmethoxy)quinoline-7-carboxamide]
The pIC50 of the first is 0.96 log units higher: 7.08 for the first, 6.12 for the second. The first is the more potent here.

Compared with CC(C)Oc1cc2c(OCC3(F)CCNCC3)nccc2cc1C(N)=O [Example 38, 1-[(4-fluoropiperidin-4-yl)methoxy]-7-(propan-2-yloxy)isoquinoline-6-carboxamide], CC(C)Oc1cc2c(OCC3(F)CCNCC3)ccnc2cc1C(N)=O [Example 54, 4-[(4-fluoropiperidin-4-yl)methoxy]-6-(propan-2-yloxy)quinoline-7-carboxamide] is 0.28 log units higher in pIC50: 5.33 for the first, 5.61 for the second.

Going from CC(C)Oc1cc2c(OC[C@H]3CCN(C(=O)CC#N)C3)ccnc2cc1C(N)=O [Example 22, 4-{[(3S)-1-(cyanoacetyl)pyrrolidin-3-yl]methoxy}-6-(propan-2-yloxy)quinoline-7-carboxamide] to CC(C)Oc1cc2c(OCC3(C)CCN(C(=O)CC#N)CC3)ccnc2cc1C(N)=O [Example 91, 4-{[1-(cyanoacetyl)-4-methylpiperidin-4-yl]methoxy}-6-(propan-2-yloxy)quinoline-7-carboxamide], the pIC50 falls from 7.35 to 6.31 (1.04 log units).

First: CC(C)Oc1cc2c(OCC3COC3)ccnc2cc1C(N)=O [Example 6, 4-(oxetan-3-ylmethoxy)-6-(propan-2-yloxy)quinoline-7-carboxamide]
Second: CC(C)Oc1cc2c(OCC3(C)CCC3)ccnc2cc1C(N)=O [Example 13, 4-[(1-methylcyclobutyl)methoxy]-6-(propan-2-yloxy)quinoline-7-carboxamide]
The pIC50 of the first is 0.21 log units lower: 6.21 for the first, 6.42 for the second. The second is the more potent here.

First: CC(C)Oc1cc2c(O[C@H]3C[C@@H]4C[C@H]3CN4C(=O)CC#N)nccc2cc1C(N)=O [Example 74, 1-{[(1S,4S,5S)-2-(cyanoacetyl)-2-azabicyclo[2.2.1]hept-5-yl]oxy}-7-(propan-2-yloxy)isoquinoline-6-carboxamide]
Second: CC(C)Oc1cc2c(OC[C@H]3CCCN3C(=O)CC#N)nccc2cc1C(N)=O [Example 61, 1-{[(2R)-1-(cyanoacetyl)pyrrolidin-2-yl]methoxy}-7-(propan-2-yloxy)isoquinoline-6-carboxamide]
The pIC50 of the first is 0.77 log units higher: 7.37 for the first, 6.60 for the second. The first is the more potent here.

First: CC(=O)N1CCC(COc2nccc3cc(C(N)=O)c(OC(C)C)cc23)CC1 [Example 33, 1-[(1-acetylpiperidin-4-yl)methoxy]-7-(propan-2-yloxy)isoquinoline-6-carboxamide]
Second: CC(C)Oc1cc2c(OCC3CCOCC3)nccc2cc1C(N)=O [Example 36, 7-(propan-2-yloxy)-1-(tetrahydro-2H-pyran-4-ylmethoxy)isoquinoline-6-carboxamide]
The pIC50 of the first is 0.59 log units lower: 5.54 for the first, 6.13 for the second. The second is the more potent here.

Compared with CC(C)Oc1cc2c(OC[C@@H]3CNCCO3)nccc2cc1C(N)=O [Example 37, 1-[(2S)-morpholin-2-ylmethoxy]-7-(propan-2-yloxy)isoquinoline-6-carboxamide], CC(C)Oc1cc2c(OC[C@@]3(C)CNC[C@@H]3C)ccnc2cc1C(N)=O [Example 55, 4-{[(3R,4R)-3,4-dimethylpyrrolidin-3-yl]methoxy}-6-(propan-2-yloxy)quinoline-7-carboxamide] is 1.13 log units higher in pIC50: 5.45 for the first, 6.58 for the second. The second is the more potent here.
